The values below come from patent US12668599B2, “Heterobifunctional compounds and methods of treating disease” (Halda Therapeutics OpCo, Inc., priority 2023, dated 2026).

Experiment [1] deals with T-Rex 293 cell line SC3 cells having increased expression of androgen receptor protein due to exposure to doxycycline. The experiment is described as follows: Cellular growth inhibition, T-Rex 293 SC3 cells with doxycycline-induced androgen receptor (CellTiter-Glo 2.0, 72 hours). It is filed as cell-based. Conditions: for Ratio of GI50's: GI50 of the top compound in the pair divided by GI50 of the lower compound, T-Rex 293 SC3 cells with doxycycline-induced androgen receptor; for GI50: T-Rex 293 SC3 cells with 10 ng/ml doxycycline (increased androgen receptor expression), 72 hours, CellTiter-Glo 2.0. On the technique in general: Cellular ATP, detected with luciferase, serves as a proxy for viable cell number.

Experiment [2] deals with T-Rex 293 cell line SC3 cells lacking increased expression of androgen receptor protein. Kind of experiment: Cellular growth inhibition, T-Rex 293 SC3 cells without doxycycline (CellTiter-Glo 2.0, 72 hours). It is filed as cell-based. Conditions: T-Rex 293 SC3 cells not exposed to doxycycline (no increased androgen receptor expression).
The subject of experiment [3] is VCaP cells. Kind of experiment: Cellular growth inhibition assay for VCaP cells (CellTiter-Glo 2.0, 72 hours). It is filed as cell-based, human. Conditions: for GI50: CellTiter-Glo 2.0; for Ratio of GI50's: GI50 of the top compound in the pair divided by GI50 of the lower compound.

In the case of `COc1cc(O[C@H]2CC[C@H](NC(=O)c3ccc(N4CCC5(CCN(c6ccc(C7=N[C@@H](C)c8nnc(C)n8-c8sc(C)c(C)c87)cc6)CC5)C4)nn3)CC2)ccc1C#N` [Compound I-17, N-[4-(4-cyano-3-methoxy-phenoxy)cyclohexyl]-6-[8-[4-[(9S)-4,5,9,13-tetramethyl-3-thia-1,8,11,12-tetrazatricyclo[8.3.0.0^2,6]trideca-2 (6),4,7,10,12-pentaen-7-yl]phenyl]-2,8-diazaspiro[4.5]decan-2-yl]pyridazine-3-carboxamide], the “Ratio of GI50's” value in experiment [1] and in experiment [3] was 1 in each case. The 50% growth inhibitory concentration (GI50) in experiment [1], in experiment [2] and in experiment [3] (72 hours) was less than 500 nM each time.

As for `COc1cc(O[C@H]2CC[C@H](NC(=O)c3ccc(N4CC(F)(F)C5(CCN(c6ccc(C7=N[C@@H](C)c8nnc(C)n8-c8sc(C)c(C)c87)cc6)C5)C4)nn3)CC2)ccc1C#N` (stereo partly shown) [Compound I-117], the GI50 in experiment [1] is less than 500 nM; in experiment [2] (72 h), less than 500 nM; in experiment [3] (Homo sapiens, VCaP, 72 h), less than 500 nM.

Regarding `COc1cc(O[C@H]2CC[C@H](NC(=O)c3ccc(N4CC(C)(C)C5(CCN(c6ccc(C7=N[C@@H](C)c8nnc(C)n8-c8sc(C)c(C)c87)cc6)CC5)C4)nn3)CC2)ccc1C#N` [Compound I-120], the GI50 is less than 500 nM in experiment [1]; less than 500 nM in experiment [2] (72 h); less than 500 nM in experiment [3] (Homo sapiens, VCaP, 72 h).

Consider `COc1cc(O[C@H]2CC[C@H](NC(=O)c3ccc(N4CCC5(CCC(c6ccc(C7=N[C@@H](C)c8nnc(C)n8-c8sc(C)c(C)c87)cn6)CC5)C4)nn3)CC2)ccc1C#N` (stereo partly shown) [Compound I-87], for which the GI50 in experiment [1], in experiment [2] and in experiment [3] (72 hours) was less than 500 nM each time.

Consider `Cc1sc2c(c1C)C(c1ccc(C#CC3CC4(C3)CN(c3ccc(C(=O)N[C@H]5CC[C@H](Oc6ccc(C#N)c(OC(F)(F)F)c6)CC5)nn3)C4)cc1)=NC1(CC1)c1nnc(C)n1-2` [Compound I-7, N-[4-[4-cyano-3-(trifluoromethoxy)phenoxy]cyclohexyl]-6-[6-[2-[4-(4,5,13-trimethylspiro[3-thia-1,8,11,12-tetrazatricyclo[8.3.0.0^2,6]trideca-2 (6),4,7,10,12-pentaene-9,1′-cyclopropane]-7-yl)phenyl]ethynyl]-2-azaspiro[3.3]heptan-2-yl]pyridazine-3-carboxamide], for which the GI50 in experiment [1] is less than 500 nM; in experiment [2] (72 h) it was less than 500 nM; in experiment [3] (Homo sapiens, VCaP, 72 h), less than 500 nM.

As to `COc1cc(O[C@H]2CC[C@H](NC(=O)c3ccc(N4CC5(CC(C#Cc6ccc(C7=NC(Cc8ncco8)c8nnc(C)n8-c8sc(C)c(C)c87)cc6F)C5)C4)nn3)CC2)ccc1C#N` (single isomer, unassigned) [Compound I-123], the concentration for 50% growth inhibition (GI50) is less than 500 nM in experiment [1]; more than 3000 nM in experiment [2]; less than 500 nM in experiment [3] (Homo sapiens, VCaP, 72 h).

Regarding `COc1cc(O[C@H]2CC[C@H](NC(=O)c3ccc(N4CCC5(CCC(c6ccc(C7=N[C@@H](C)c8nnc(C)n8-c8sc(C)c(C)c87)cc6)CC5)C4)nc3)CC2)ccc1C#N` (stereo partly shown) [Compound I-36], the GI50 is less than 500 nM in experiment [1]; less than 500 nM in experiment [2] (72 h); less than 500 nM in experiment [3] (Homo sapiens, VCaP, 72 h).

In the case of `COc1cc(O[C@H]2CC[C@H](NC(=O)c3ccc(N4CCC5(CCC(c6ccc(C7=N[C@@H](C)c8nnc(C)n8-c8sc(C)c(C)c87)cc6OC)CC5)C4)nn3)CC2)ccc1C#N` (stereo partly shown) [Compound I-67], the GI50 in experiment [1], in experiment [2] and in experiment [3] (72 hours) was less than 500 nM throughout.

In the case of `COc1cc(O[C@H]2CC[C@H](NC(=O)c3ccc(N4CCC5(CCC(c6ccc(C7=N[C@@H](C)c8nnc(C)n8-c8sc(C)c(C)c87)cc6)C5)C4)nn3)CC2)ccc1C#N` (stereo partly shown) [Compound I-95], the GI50 in experiment [1], in experiment [2] and in experiment [3] (72 hours) was less than 500 nM each time.

Take `COc1cc(O[C@H]2CC[C@H](NC(=O)c3ccc(N4CCC5(CCN(c6ccc(C7=N[C@@H](C)c8nnc(C)n8-c8sc(C)c(C)c87)cc6OC)CC5)C4)nn3)CC2)ccc1C#N` [Compound I-90]: the GI50 in experiment [1] was less than 500 nM; in experiment [2] (72 h), less than 500 nM; in experiment [3] (Homo sapiens, VCaP, 72 h), less than 500 nM.

Consider `COc1cc(O[C@H]2C(C)(C)[C@H](NC(=O)c3cnc(N4CCC5(CC4)CC(Oc4ccc(C6=N[C@@H](Cc7ncco7)c7nnc(C)n7-c7sc(CO)c(C)c76)cc4)C5)nc3)C2(C)C)ccc1C#N` [III-2, N-[(1r,3r)-3-(4-cyano-3-methoxy-phenoxy)-2,2,4,4-tetramethyl-cyclobutyl]-2-[2-[4-[(9S)-4-(hydroxymethyl)-5,13-dimethyl-9-(oxazol-2-ylmethyl)-3-thia-1,8,11,12-tetrazatricyclo[8.3.0.0^2,6]trideca-2 (6),4,7,10,12-pentaen-7-yl]phenoxy]-7-azaspiro[3.5]nonan-7-yl]pyrimidine-5-carboxamide], for which the GI50 in experiment [1] is less than 500 nM; in experiment [2] (72 h), less than 500 nM; in experiment [3] (Homo sapiens, VCaP, 72 h) it was less than 500 nM.

In the case of `COc1cc(O[C@H]2CC[C@H](NC(=O)c3cnc(N4CCC5(CCN(c6ccc(C7=N[C@@H](C)c8nnc(C)n8-c8sc(C)c(C)c87)cc6)CC5)C4)cn3)CC2)ccc1C#N` [Compound I-39, N-((1r,4r)-4-(4-cyano-3-methoxyphenoxy)cyclohexyl)-5-(8-(4-((S)-2,3,6,9-tetramethyl-6H-thieno[3,2-f][1,2,4]triazolo[4,3-a][1,4]diazepin-4-yl)phenyl)-2,8-diazaspiro[4.5]decan-2-yl) pyrazine-2-carboxamide], the concentration for 50% growth inhibition (GI50) in experiment [1] is less than 500 nM; in experiment [2] (72 h), less than 500 nM; in experiment [3] (Homo sapiens, VCaP, 72 h) it was less than 500 nM.

In the case of `COc1cc(O[C@H]2CC[C@H](NC(=O)c3ccc(N4CCC5(CCC(c6ccc(C7=N[C@@H](C)c8nnc(C)n8-c8sc(C)c(C)c87)cc6)C5)C4)nn3)CC2)ccc1C#N` (stereo partly shown) [Compound I-94], the GI50 in experiment [1] was less than 500 nM; in experiment [2] (72 h) it was less than 500 nM; in experiment [3] (Homo sapiens, VCaP, 72 h) it was less than 500 nM.

Regarding `COc1cc(O[C@H]2CC[C@H](NC(=O)c3ccc(N4CCC5(CCN(c6ccc(C7=N[C@@H](C)c8nnc(C)n8-c8sc(C)c(C)c87)c(C)c6)CC5)C4)nn3)CC2)ccc1C#N` [Compound I-72], the GI50 is less than 500 nM in experiment [1]; less than 500 nM in experiment [2] (72 h); less than 500 nM in experiment [3] (Homo sapiens, VCaP, 72 h).

Take `COc1cc(O[C@H]2CC[C@H](NC(=O)c3ccc(N4CCC5(CCN(c6ccc(C7=N[C@@H](C)c8nnc(C)n8-c8sc(C)c(C)c87)cc6)CC5(F)F)C4)nn3)CC2)ccc1C#N` (stereo partly shown) [Compound I-113]: the GI50 in experiment [1] is less than 500 nM; in experiment [2] (72 h), less than 500 nM; in experiment [3] (Homo sapiens, VCaP, 72 h), less than 500 nM.

Regarding `COc1cc(O[C@H]2CC[C@H](NC(=O)c3ccc(N4CC5(CC(C#Cc6ccc(C7=N[C@@H](Cc8ncco8)c8nnc(C)n8-c8sc(C)c(C)c87)cc6)C5)C4)nn3)CC2)ccc1C#N` [Compound I-124, N-[(1r,4r)-4-(4-cyano-3-methoxy-phenoxy)cyclohexyl]-6-[6-[2-[4-[(9S)-4,5,13-trimethyl-9-(oxazol-2-ylmethyl)-3-thia-1,8,11,12-tetrazatricyclo[8.3.0.0^2,6]trideca-2 (6),4,7,10,12-pentaen-7-yl]phenyl]ethynyl]-2-azaspiro[3.3]heptan-2-yl]pyridazine-3-carboxamide], the “Ratio of GI50's” value in experiment [1] and in experiment [3] was 1 throughout. For the same molecule, the GI50 in experiment [1] was less than 500 nM; in experiment [2] (72 h), less than 500 nM; in experiment [3] (Homo sapiens, VCaP, 72 h), less than 500 nM.

On to `COc1cc(O[C@H]2CC[C@H](NC(=O)c3ccc(N4CCC5(CCC(c6ccc(C7=N[C@@H](C)c8nnc(C)n8-c8sc(C)c(C)c87)cc6OC)CC5)C4)nn3)CC2)ccc1C#N` (single isomer, unassigned) [Compound I-66], for which the GI50 in experiment [1] was less than 500 nM; in experiment [2] (72 h) it was less than 500 nM; in experiment [3] (Homo sapiens, VCaP, 72 h), less than 500 nM.

`COc1cc(O[C@H]2CC[C@H](NC(=O)c3ccc(N4CCC5(CCC(c6ccc(C7=N[C@@H](C)c8nnc(C)n8-c8sc(C)c(C)c87)cc6)CC5)C4)nn3)CC2)ccc1C#N` (stereo partly drawn) [Compound I-19, N-[(1r,4r)-4-(4-cyano-3-methoxy-phenoxy)cyclohexyl]-6-[8-[4-[(9S)-4,5,9,13-tetramethyl-3-thia-1,8,11,12-tetrazatricyclo[8.3.0.0^2,6]trideca-2 (6),4,7,10,12-pentaen-7-yl]phenyl]-2-azaspiro[4.5]decan-2-yl]pyridazine-3-carboxamide]: the GI50 in experiment [1] was less than 500 nM; in experiment [2] (72 h), less than 500 nM; in experiment [3] (Homo sapiens, VCaP, 72 h), less than 500 nM.

With `COc1cc(O[C@H]2CC[C@H](NC(=O)c3ccc(N4CCC5(CCC(c6ccc(C7=N[C@@H](C)c8nnc(C)n8-c8sc(C)c(C)c87)cc6)C5)C4)nn3)CC2)ccc1C#N` (stereo partly shown) [Compound I-97], the GI50 in experiment [1], in experiment [2] and in experiment [3] (72 hours) was less than 500 nM in each case.

For the molecule `COc1cc(O[C@H]2CC[C@H](NC(=O)c3ccc(N4CCC5(CCN(c6ccc(C7=N[C@@H](C)c8nnc(C)n8-c8sc(C)c(C)c87)cc6F)C5)C4)nn3)CC2)ccc1C#N` (stereo partly shown) [Compound I-80], the GI50 in experiment [1], in experiment [2] and in experiment [3] (72 hours) was less than 500 nM throughout.

Consider `COc1cc(O[C@H]2CC[C@H](NC(=O)c3ccc(N4CCC5(CCN(c6ccc(C7=N[C@@H](C)c8nnc(C)n8-c8sc(C)c(C)c87)c(F)c6)CC5)C4)nn3)CC2)ccc1C#N` [Compound I-45, N-[4-(4-cyano-3-methoxy-phenoxy)cyclohexyl]-6-[8-[3-fluoro-4-[(9S)-4,5,9,13-tetramethyl-3-thia-1,8,11,12-tetrazatricyclo[8.3.0.0^2,6]trideca-2 (6),4,7,10,12-pentaen-7-yl]phenyl]-2,8-diazaspiro[4.5]decan-2-yl]pyridazine-3-carboxamide], for which the GI50 in experiment [1] is less than 500 nM; in experiment [2] (72 h), less than 500 nM; in experiment [3] (Homo sapiens, VCaP, 72 h) it was less than 500 nM.

Broadly, the GI50 is the concentration giving 50% growth inhibition.
